Source: patent US9695155B2, “Herbicidal substituted pyrimidinyloxy benzene compounds” (E. I. DU PONT DE NEMOURS AND COMPANY, priority 2013, dated 2017)

Legend:
[1] = system: barnyardgrass; test: Test A preemergence; assay type: in vivo, Echinochloa crus-galli; details: for Plant response rating, Barnyardgrass: 125 g ai/ha, 0 to 100 scale where 0 is no effect and 100 is complete control; for Barnyardgrass plant response rating: 500 g ai/ha, 0 to 100 scale, 0 no effect, 100 complete control, approx. 10 days
Method in brief: (§1)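 Compounds in non-phytotoxic solvent with surfactant applied as soil spray preemergence, or postemergence to plants 2-10 cm at one- to two-leaf stage, in loam/sand. After approximately 10 days in greenhouse, injury rated visually versus untreated controls, 0 (no effect) to 100 (complete control).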

[2] = system: corn; test: Test A preemergence; assay type: in vivo, Zea mays; details: for Plant response rating, Corn: 125 g ai/ha, 0 to 100 scale where 0 is no effect and 100 is complete control; for Corn plant response rating: 500 g ai/ha, 0 to 100 scale, 0 no effect, 100 complete control, approx. 10 days
Method in brief: as §1

[3] = system: Italian ryegrass; test: Test C preemergence; assay type: in vivo, Lolium multiflorum; details: for Ryegrass, Italian plant response rating: preemergence; for Plant response rating, Ryegrass, Italian: Preemergence, 31 g ai/ha, scale 0 to 100, 0 no effect, 100 complete control
Method in brief: (§2)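 Greenhouse herbicide screen. Pre: seeded loam/sand, sprayed at planting. Post: 1–4 leaf plants (2–18 cm) in peat-based mix. Formulation: solvent mixture + surfactant, non-phytotoxic. Readout: visual % control vs untreated, 13–15 d; dash = not tested.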

[4] = system: giant foxtail; test: Test C postemergence; assay type: in vivo, Setaria faberii; details: for Plant response rating, Foxtail, Giant: Postemergence
Method in brief: as §2

[5] = system: johnsongrass; test: Test C preemergence; assay type: in vivo, Sorghum halepense; details: for Johnsongrass plant response rating: preemergence; for Plant response rating, Johnsongrass: Preemergence, 31 g ai/ha, scale 0 to 100, 0 no effect, 100 complete control
Method in brief: as §2

[6] = system: soybean; test: Test C postemergence; assay type: in vivo, Glycine max; details: for Plant response rating (0 to 100), Soybean: postemergence; for Plant response rating, Soybean: Postemergence, scale 0 to 100 (0 no effect, 100 complete control)
Method in brief: as §2

[7] = system: galium; test: Test C preemergence; assay type: in vivo, Galium aparine; details: for Galium plant response rating: preemergence; for Plant response rating, Galium: Preemergence, 31 g ai/ha, scale 0 to 100, 0 no effect, 100 complete control
Method in brief: as §2

[8] = system: wheat; test: Test A postemergence; assay type: in vivo, Triticum aestivum; details: 0 to 100 scale where 0 is no effect and 100 is complete control
Method in brief: as §1

[9] = system: barnyardgrass; test: Test A postemergence; assay type: in vivo, Echinochloa crus-galli
Method in brief: as §1

[10] = system: velvetleaf; test: Test C postemergence; assay type: in vivo, Abutilon theophrasti; details: for Plant response rating (0 to 100), Velvetleaf: postemergence; for Plant response rating, Velvetleaf: Postemergence, scale 0 to 100 (0 no effect, 100 complete control)
Method in brief: as §2

[11] = system: lambsquarters; test: Test C postemergence; assay type: in vivo, Chenopodium album; details: for Plant response rating (0 to 100), Lambsquarters: postemergence; for Plant response rating, Lambsquarters: Postemergence, scale 0 to 100 (0 no effect, 100 complete control)
Method in brief: as §2

[12] = system: ragweed; test: Test C postemergence; assay type: in vivo, Ambrosia elatior; details: for Plant response rating (0 to 100), Ragweed: postemergence; for Plant response rating, Ragweed: Postemergence, scale 0 to 100 (0 no effect, 100 complete control)
Method in brief: as §2

[13] = system: morningglory; test: Test C preemergence; assay type: in vivo, Ipomoea coccinea; details: for Morningglory plant response rating: preemergence; for Plant response rating, Morningglory: Preemergence, 31 g ai/ha, scale 0 to 100, 0 no effect, 100 complete control
Method in brief: as §2

[14] = system: blackgrass; test: Test C postemergence; assay type: in vivo, Alopecurus myosuroides; details: for Plant response rating, Blackgrass: Postemergence
Method in brief: as §2

[15] = system: galium; test: Test C postemergence; assay type: in vivo, Galium aparine; details: for Plant response rating, Galium: Postemergence
Method in brief: as §2

[16] = 62 g ai/ha, scale 0 (no effect) to 100 (complete control)
[17] = 125 g ai/ha, scale 0 (no effect) to 100 (complete control)
[18] = 250 g ai/ha, scale 0 (no effect) to 100 (complete control)
[19] = 31 g ai/ha, scale 0 to 100 (0 no effect, 100 complete control), 13 to 15 days
[20] = 62 g ai/ha, scale 0 to 100 (0 no effect, 100 complete control)
[21] = 125 g ai/ha, 0 to 100 scale where 0 is no effect and 100 is complete control
[22] = 16 g ai/ha, scale 0 to 100 (0 no effect, 100 complete control)
[23] = 16 g ai/ha, postemergence, visual rating, scale 0 to 100 (0 no effect, 100 complete control), 13 to 15 days

SMILES: N#Cc1cccc(Oc2ncc(Cl)cn2)c1-n1cc(Cl)cn1 [Compound 72]
- Plant response rating, Barnyardgrass [1]: 80
- Barnyardgrass plant response rating [1]: 100
- Plant response rating, Corn [2]: 30
- Corn plant response rating [2]: 50
- Ryegrass, Italian plant response rating [3, 16]: 10
- Ryegrass, Italian plant response rating [3, 17]: 40
- Ryegrass, Italian plant response rating [3, 18]: 80
- Plant response rating, Ryegrass, Italian [3]: 5
- Plant response rating (0 to 100), Foxtail, Giant ([4]; 125 g ai/ha, postemergence): 10
- Plant response rating (0 to 100), Foxtail, Giant ([4]; 250 g ai/ha, postemergence): 65
- Plant response rating, Foxtail, Giant [4, 19]: 10
- Plant response rating, Foxtail, Giant [4, 20]: 10
- Johnsongrass plant response rating [5, 16]: 55
- Johnsongrass plant response rating [5, 17]: 100
- Johnsongrass plant response rating [5, 18]: 100
- Plant response rating, Johnsongrass [5]: 35
- Plant response rating (0 to 100), Soybean ([6]; 125 g ai/ha): 90
- Plant response rating (0 to 100), Soybean ([6]; 250 g ai/ha): 95
- Plant response rating, Soybean ([6]; 62 g ai/ha): 80
- Galium plant response rating [7, 16]: 90
- Galium plant response rating [7, 17]: 90
- Galium plant response rating [7, 18]: 95
- Plant response rating, Galium [7]: 80
- Plant response rating, Wheat ([8]; 125 g ai/ha): 20
- Plant response rating, Wheat ([8]; 500 g ai/ha): 50
- Plant response rating, Barnyardgrass [9, 21]: 90
- Plant response rating, Barnyardgrass ([9]; 500 g ai/ha, 0 to 100 scale, 0 no effect, 100 complete control): 100
- Plant response rating (0 to 100), Velvetleaf ([10]; 125 g ai/ha): 55
- Plant response rating (0 to 100), Velvetleaf ([10]; 250 g ai/ha): 75
- Plant response rating, Velvetleaf ([10]; 31 g ai/ha, 13 to 15 days): 40
- Plant response rating, Velvetleaf ([10]; 62 g ai/ha): 40
- Plant response rating (0 to 100), Lambsquarters ([11]; 125 g ai/ha): 85
- Plant response rating (0 to 100), Lambsquarters ([11]; 250 g ai/ha): 98
- Plant response rating, Lambsquarters ([11]; 31 g ai/ha, 13 to 15 days): 75
- Plant response rating, Lambsquarters ([11]; 62 g ai/ha): 75
- Plant response rating (0 to 100), Ragweed ([12]; 125 g ai/ha): 60
- Plant response rating (0 to 100), Ragweed ([12]; 250 g ai/ha): 60
- Plant response rating, Ragweed ([12]; 31 g ai/ha, 13 to 15 days): 40
- Plant response rating, Ragweed ([12]; 62 g ai/ha): 40
- Morningglory plant response rating [13, 16]: 85
- Morningglory plant response rating [13, 17]: 100
- Morningglory plant response rating [13, 18]: 100
- Plant response rating, Morningglory [13]: 15
- Plant response rating (0 to 100), Blackgrass ([14]; 125 g ai/ha, postemergence): 15
- Plant response rating (0 to 100), Blackgrass ([14]; 250 g ai/ha, postemergence): 15
- Plant response rating, Blackgrass [14, 19]: 10
- Plant response rating, Blackgrass [14, 20]: 10
- Plant response rating (0 to 100), Galium ([15]; 125 g ai/ha, postemergence): 95
- Plant response rating (0 to 100), Galium ([15]; 250 g ai/ha, postemergence): 95
- Plant response rating, Galium [15, 19]: 75
- Plant response rating, Galium [15, 20]: 80

SMILES: Fc1cnc(Oc2cccc(C(F)F)c2-n2cc(Cl)cn2)nc1 [Compound 94]
- Plant response rating, Barnyardgrass [1]: 80
- Barnyardgrass plant response rating [1]: 100
- Plant response rating, Corn [2]: 0
- Corn plant response rating [2]: 30
- Ryegrass, Italian plant response rating [3, 22]: 0
- Ryegrass, Italian plant response rating [3, 16]: 10
- Ryegrass, Italian plant response rating [3, 17]: 50
- Plant response rating, Ryegrass, Italian [3]: 0
- Foxtail, Giant plant response rating [4, 23]: 10
- Plant response rating (0 to 100), Foxtail, Giant ([4]; 125 g ai/ha, postemergence): 10
- Plant response rating, Foxtail, Giant [4, 19]: 10
- Plant response rating, Foxtail, Giant [4, 20]: 10
- Johnsongrass plant response rating [5, 22]: 0
- Johnsongrass plant response rating [5, 16]: 35
- Johnsongrass plant response rating [5, 17]: 70
- Plant response rating, Johnsongrass [5]: 25
- Plant response rating (0 to 100), Soybean ([6]; 125 g ai/ha): 80
- Plant response rating, Soybean ([6]; 31 g ai/ha, 13 to 15 days): 45
- Plant response rating, Soybean ([6]; 62 g ai/ha): 85
- Galium plant response rating [7, 22]: 80
- Galium plant response rating [7, 16]: 98
- Galium plant response rating [7, 17]: 100
- Plant response rating, Galium [7]: 98
- Plant response rating, Wheat ([8]; 125 g ai/ha): 0
- Plant response rating, Wheat ([8]; 500 g ai/ha): 50
- Plant response rating, Barnyardgrass [9, 21]: 20
- Plant response rating, Barnyardgrass ([9]; 500 g ai/ha, 0 to 100 scale where 0 is no effect and 100 is complete control): 90
- Plant response rating (0 to 100), Velvetleaf ([10]; 125 g ai/ha): 40
- Plant response rating, Velvetleaf ([10]; 31 g ai/ha, 13 to 15 days): 20
- Plant response rating, Velvetleaf ([10]; 62 g ai/ha): 65
- Plant response rating (0 to 100), Lambsquarters ([11]; 125 g ai/ha): 85
- Plant response rating, Lambsquarters ([11]; 31 g ai/ha, 13 to 15 days): 65
- Plant response rating, Lambsquarters ([11]; 62 g ai/ha): 75
- Plant response rating (0 to 100), Ragweed ([12]; 125 g ai/ha): 45
- Plant response rating, Ragweed ([12]; 31 g ai/ha, 13 to 15 days): 15
- Plant response rating, Ragweed ([12]; 62 g ai/ha): 55
- Morningglory plant response rating [13, 22]: 0
- Morningglory plant response rating [13, 16]: 40
- Morningglory plant response rating [13, 17]: 90
- Plant response rating, Morningglory [13]: 30
- Blackgrass plant response rating [14, 23]: 0
- Plant response rating (0 to 100), Blackgrass ([14]; 125 g ai/ha, postemergence): 5
- Plant response rating, Blackgrass [14, 19]: 5
- Plant response rating, Blackgrass [14, 20]: 5
- Galium plant response rating [15, 23]: 45
- Plant response rating (0 to 100), Galium ([15]; 125 g ai/ha, postemergence): 80
- Plant response rating, Galium [15, 19]: 70
- Plant response rating, Galium [15, 20]: 80
